Measured values reported in article PMC12373846, “Hemoglobin as a pseudoperoxidase and drug target for oxidative stress-related diseases” (Signal Transduction and Targeted Therapy, 2025).
Each block holds one molecule with its values, some of them ahead of it.

Assays:
[1] = DPPH radical scavenging assay; details: Fig. S1e
Procedure: In a 96-well microplate, samples (20 μl) at concentrations ranging from 0.1 to 100 μM were mixed with 80 μL of 50 mM sodium phosphate buffer (pH 7.2) and 100 μL of DPPH (1,1-diphenyl-2-picrylhydrazyl) solution (250 μM in methanol) and incubated for 30-min in the dark. Each sample was quantified using a microplate fluorescence reader (SpectraMax iD5, Molecular Devices) at absorbance (517 nm). Edaravone was used as a positive control. The radical scavenging activity was estimated using the following equation: sample absorbance / control absorbance ×100. The dose-response curve, EC50 for the DPPH, was calculated and determined by fitting data with GraphPad Prism software. The fitting method had no special handling of outliers.

[2] = system: primary cultured hippocampal astrocytes; test: oROS-G intracellular H2O2 imaging; type: cell-based, mouse; details: Fig. 3f
Procedure: (§1) Primary hippocampal astrocytes were obtained from postnatal day 0‒2 (P0‒2) C57BL/6 mice as previously described.[73] The hippocampal tissue was dissected free of meninges, minced, and dissociated into a single-cell suspension by trituration. The cells were grown in Dulbecco’s modified Eagle’s medium supplemented with D-glucose (4500 mg/L), L-glutamine, sodium pyruvate (110 mg/L), 10% heat-inactivated horse serum, 10% heat-inactivated fetal bovine serum, and 1000 U/ml penicillin‒streptomycin. The cells were maintained at 37 °C in a humidified atmosphere containing 5% CO2.
H2O2 specific, highly sensitive, and fast on-and-off kinetics, a genetically encoded oROS-G plasmid kindly provided by Dr. Andre Berndt. oROS-G was cloned under the GFAP104 promoter and delivered into primary cultured hippocampal astrocytes via the NeoN^TM transfection system (Invitrogen). The cells were treated with various concentrations of Aβ (1 to 10 μM) or 6-OHDA (Tocris, 2547; 10 to 50 μM) to induce aberrant H2O2. For subsequent experiments, 5 μM Aβ and 30 μM 6-OHDA were selected on the basis of initial dose‒response studies. KDS12025 (10 μM) and sodium pyruvate (1 mM) were applied as indicated in each experiment. For live-cell imaging, astrocytes were maintained in a humidified chamber at 37 °C with 5% […] during imaging to preserve physiological conditions. Changes in the fluorescence of oROS-G were recorded via an A1 Nikon confocal microscope equipped with a temperature- and humidity-controlled stage. Images were captured every 20 min for up to 40 h (20for the 6-OHDA experiments) via the NIS-Elements software (Nikon, Japan) for time-lapse imaging. The excitation and emission wavelengths for oROS-G fluorescence were set to 485 nm and 538 nm, respectively. Endpoint fluorescence measurements were also collected for KDS12025 dose-dependent experiments. To analyze the fluorescence intensity, individual regions of interest (ROIs) were manually selected for each astrocyte via NIS-Elements software (Nikon, Japan). The fluorescence intensity changes were normalized to the baseline values (ΔF/F0) to quantify the H2O2 dynamics. To determine the EC50 of KDS12025, endpoint fluorescence intensity data from oROS-G experiments were normalized to those of the Aβ+vehicle control group. The normalized data were analyzed via GraphPad Prism software to fit a four-parameter logistic curve, yielding the EC50 value for the H2O2-decomposing activity of KDS12025.

[3] = system: primary cultured hippocampal astrocytes; test: DCFDA intracellular ROS assay; type: cell-based, mouse; details: Fig. 3d
Procedure: as §1
The intracellular ROS levels of astrocytes were determined via 2′,7′- dichlorodihydrofluorescein diacetate (DCFDA; Thermo Fisher). Primary cultured hippocampal astrocytes were seeded into black 96-well plates (Ibidi) at a density of 5 × 10⁴ cells per well. The plates were incubated with oligomerized Aβ42 in the presence of KDS12008, KDS12017, KDS12025, HTPEB (10 µM each), and sodium pyruvate (1 mM). These cells were subsequently washed with Ca^2+ and Mg^2+-containing PBS, followed by the application of 30 µM DCFDA and incubation at 37 °C for 30 min in a dark incubator. The mean fluorescence intensity of each well was measured via iD5 microplate readers at 485 nm and 530 nm. The fluorescence values were calculated by subtracting the blank readings and normalizing them to those of the control group.

HRP = target: T1, HRP (Armoracia rusticana, UniProt P00433); test: ROS-Glo H2O2 assay with HRP; type: biochemical, horseradish
T1 sequence (P00433 31-353): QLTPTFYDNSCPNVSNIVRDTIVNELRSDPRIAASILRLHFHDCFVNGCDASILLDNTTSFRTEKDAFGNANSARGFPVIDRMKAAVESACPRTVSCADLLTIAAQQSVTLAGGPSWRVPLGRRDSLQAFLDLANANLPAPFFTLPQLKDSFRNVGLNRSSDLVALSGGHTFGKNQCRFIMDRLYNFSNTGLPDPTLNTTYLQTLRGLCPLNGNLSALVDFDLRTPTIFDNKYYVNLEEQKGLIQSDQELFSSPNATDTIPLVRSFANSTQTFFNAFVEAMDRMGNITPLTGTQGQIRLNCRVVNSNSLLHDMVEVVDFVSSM
Procedure: Hb (Sigma‒Aldrich, H7379), H2O2 (Sigma‒Aldrich, H1009), and Amplex Red reagents (Invitrogen, A12222) were obtained for the study. A 4 μM H2O2 solution was prepared in 50 mM sodium phosphate buffer (pH 7.2). Then, 49 μl of this mixture was mixed with 1 μl of the test compound in DMSO or distilled water. The mixture was combined with an assay mixture of Amplex Red reagent (20 mM stock to 0.1 mM) and HRP (200 U/ml stock to 0.2 U/ml) and added to the wells at 50 μl/well. After a 60-min incubation at 37 °C, resorufin production was quantified via a microplate fluorescence reader (SpectraMax iD5, Molecular Devices) at ex/em = 535/580 nm. […] For the ROS-Glo assay, the H2O2 substrate solution and ROS-Glo detection solution were prepared according to the manufacturer’s instructions. 10 μM H2O2 and drugs were prepared as in the Amplex Red assay, with HRP, Hb, CAT, or GPx added as needed. The mixture was added to the wells at 100 μl/well and incubated for 60 min at 37 °C. H2O2 substrate solution was added, and the mixture was incubated at room temperature for 30 min. After the H2O2 substrate solution was added and incubated at room temperature for 30 min, the ROS-Glo detection solution was added, and the mixture was incubated for 15 min. Luminescence was measured via iD5 microplate readers. […] The U/ml was calculated on the basis of the amount of H2O2 reduced by Hb during the reaction, using μg/ml and U/mg.
To evaluate the extent of peroxidase function facilitation by HTPEB (1 μM) and KDS12025 (1 μM) in HRP (0.2 U/ml) and Hb (10 μg/ml), we used the ROS-Glo assay over 30 and 60 min. The fold change was calculated by dividing the delta values during the 30-min reaction for the vehicle over drug conditions.

IC50 [1]: 16.7 µM
Molecule: CC1=NN(c2ccccc2)C(=O)C1 [Edaravone]

Molecule: Aβ: oligomerized Amyloid-beta (Aβ)42 aggregates [reference compound]
oROS-G fluorescence (intracellular H2O2) ([2]; Aβ 1μM): 109.4±4.271
oROS-G fluorescence (intracellular H2O2) ([2]; Aβ 5μM): 140.5±4.407
oROS-G fluorescence (intracellular H2O2) ([2]; Aβ 10μM): 208.1±3.662
ROS level (DCFDA) ([3]; Aβ 1μM): 101.9±6.217
ROS level (DCFDA) ([3]; Aβ 5μM): 137.3±8.218
ROS level (DCFDA) ([3]; Aβ 10μM): 155.2±9.442

EC50 of HRP for H2O2 decomposition without HTPEB (HRP; Fig. S1a): 0.062 U/ml
tau value, reaction time-response of HRP without HTPEB (HRP; Fig. S1b): 13.7 min
Molecule: HRP: horseradish peroxidase, plant-derived heme-containing peroxidase
